{
  "source": "paper PMC9234961",
  "about": "(Journal of Medicinal Chemistry, 2022)",
  "key": {"HTR2A": {"target": "HTR2A (Homo sapiens, UniProt P28223)", "sequence (P28223 whole entry)": "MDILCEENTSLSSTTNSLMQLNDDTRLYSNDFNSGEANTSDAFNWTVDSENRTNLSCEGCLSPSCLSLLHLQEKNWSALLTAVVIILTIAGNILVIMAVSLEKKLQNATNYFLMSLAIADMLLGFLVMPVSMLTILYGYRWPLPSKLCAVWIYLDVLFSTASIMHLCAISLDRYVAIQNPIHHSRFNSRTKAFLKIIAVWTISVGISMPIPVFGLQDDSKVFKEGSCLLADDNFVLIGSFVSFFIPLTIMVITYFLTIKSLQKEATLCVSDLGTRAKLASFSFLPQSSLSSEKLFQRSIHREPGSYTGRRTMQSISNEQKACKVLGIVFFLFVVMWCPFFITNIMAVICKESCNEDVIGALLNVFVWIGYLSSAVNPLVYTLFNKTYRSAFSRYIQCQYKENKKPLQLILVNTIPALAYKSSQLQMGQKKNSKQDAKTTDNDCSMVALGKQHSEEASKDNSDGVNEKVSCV", "experiment": "SAFETYScan GPCR Calcium Flux, Agonist", "type": "cell-based", "source_text": "(§1) Supplement jm1c02175_si_002.xlsx, sheet \"SAFETYScan\" | column: RC50 (uM); Max Response"}, "AVPR1A": {"target": "AVPR1A (Homo sapiens, UniProt P37288)", "sequence (P37288 whole entry)": "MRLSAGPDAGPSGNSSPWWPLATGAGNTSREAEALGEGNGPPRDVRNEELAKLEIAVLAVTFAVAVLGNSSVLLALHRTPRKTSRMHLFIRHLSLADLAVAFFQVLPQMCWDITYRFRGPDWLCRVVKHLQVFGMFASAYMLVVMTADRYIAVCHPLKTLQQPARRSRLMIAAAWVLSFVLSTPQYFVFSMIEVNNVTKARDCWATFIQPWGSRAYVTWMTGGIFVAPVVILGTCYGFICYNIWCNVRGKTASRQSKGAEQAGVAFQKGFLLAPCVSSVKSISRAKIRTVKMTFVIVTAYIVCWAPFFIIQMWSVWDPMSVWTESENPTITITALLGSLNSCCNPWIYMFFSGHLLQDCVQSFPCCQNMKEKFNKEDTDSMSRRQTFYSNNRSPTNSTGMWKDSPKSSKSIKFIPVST", "experiment": "SAFETYScan GPCR Calcium Flux, Agonist", "type": "cell-based", "source_text": "as §1"}, "EDNRA": {"target": "T1, EDNRA (Homo sapiens, UniProt P25101)", "T1 sequence (P25101 21-427)": "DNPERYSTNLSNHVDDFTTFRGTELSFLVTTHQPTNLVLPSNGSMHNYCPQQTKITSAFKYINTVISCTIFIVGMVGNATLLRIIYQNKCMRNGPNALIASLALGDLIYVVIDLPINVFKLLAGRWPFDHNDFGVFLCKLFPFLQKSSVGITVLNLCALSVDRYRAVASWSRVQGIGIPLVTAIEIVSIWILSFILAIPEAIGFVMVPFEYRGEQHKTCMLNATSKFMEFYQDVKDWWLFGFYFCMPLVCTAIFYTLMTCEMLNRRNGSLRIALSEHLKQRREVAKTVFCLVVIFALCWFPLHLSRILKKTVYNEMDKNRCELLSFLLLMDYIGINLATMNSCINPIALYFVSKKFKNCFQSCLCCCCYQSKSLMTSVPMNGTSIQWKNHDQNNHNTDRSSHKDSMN", "experiment": "SAFETYScan GPCR Calcium Flux, Agonist", "type": "cell-based", "source_text": "as §1"}, "ADORA2A": {"target": "ADORA2A (Homo sapiens, UniProt P29274)", "sequence (P29274 whole entry)": "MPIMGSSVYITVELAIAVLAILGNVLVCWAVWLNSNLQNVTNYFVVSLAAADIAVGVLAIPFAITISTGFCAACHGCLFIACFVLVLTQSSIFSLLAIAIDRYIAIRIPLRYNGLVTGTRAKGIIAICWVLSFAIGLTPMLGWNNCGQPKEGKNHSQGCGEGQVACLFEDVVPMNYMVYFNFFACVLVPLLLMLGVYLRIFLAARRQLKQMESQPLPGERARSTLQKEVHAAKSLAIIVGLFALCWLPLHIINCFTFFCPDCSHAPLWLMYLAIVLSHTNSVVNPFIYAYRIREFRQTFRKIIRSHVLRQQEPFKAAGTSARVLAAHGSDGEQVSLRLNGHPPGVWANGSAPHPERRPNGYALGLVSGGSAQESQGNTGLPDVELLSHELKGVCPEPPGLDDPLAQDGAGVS", "experiment": "SAFETYScan GPCR Calcium Flux, Agonist", "type": "cell-based", "source_text": "as §1"}, "CHRM1": {"target": "T2, CHRM1 (Homo sapiens, UniProt P11229)", "T2 sequence (P11229 1-460)": "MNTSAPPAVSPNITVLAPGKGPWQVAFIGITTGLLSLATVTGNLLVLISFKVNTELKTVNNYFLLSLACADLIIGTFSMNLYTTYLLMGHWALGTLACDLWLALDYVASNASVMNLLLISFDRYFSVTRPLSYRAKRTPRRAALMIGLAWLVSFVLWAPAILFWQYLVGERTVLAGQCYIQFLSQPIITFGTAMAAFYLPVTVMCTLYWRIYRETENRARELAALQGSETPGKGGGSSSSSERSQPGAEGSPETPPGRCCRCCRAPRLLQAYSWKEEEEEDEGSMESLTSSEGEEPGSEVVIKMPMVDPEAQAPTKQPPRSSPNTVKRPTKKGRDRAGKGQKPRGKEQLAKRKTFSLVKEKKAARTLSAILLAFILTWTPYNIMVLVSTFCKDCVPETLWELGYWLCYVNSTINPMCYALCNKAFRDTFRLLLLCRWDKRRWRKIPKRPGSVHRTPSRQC", "experiment": "SAFETYScan GPCR Calcium Flux, Agonist", "type": "cell-based", "source_text": "as §1"}, "CHRM3": {"target": "CHRM3 (Homo sapiens, UniProt P20309)", "sequence (P20309 whole entry)": "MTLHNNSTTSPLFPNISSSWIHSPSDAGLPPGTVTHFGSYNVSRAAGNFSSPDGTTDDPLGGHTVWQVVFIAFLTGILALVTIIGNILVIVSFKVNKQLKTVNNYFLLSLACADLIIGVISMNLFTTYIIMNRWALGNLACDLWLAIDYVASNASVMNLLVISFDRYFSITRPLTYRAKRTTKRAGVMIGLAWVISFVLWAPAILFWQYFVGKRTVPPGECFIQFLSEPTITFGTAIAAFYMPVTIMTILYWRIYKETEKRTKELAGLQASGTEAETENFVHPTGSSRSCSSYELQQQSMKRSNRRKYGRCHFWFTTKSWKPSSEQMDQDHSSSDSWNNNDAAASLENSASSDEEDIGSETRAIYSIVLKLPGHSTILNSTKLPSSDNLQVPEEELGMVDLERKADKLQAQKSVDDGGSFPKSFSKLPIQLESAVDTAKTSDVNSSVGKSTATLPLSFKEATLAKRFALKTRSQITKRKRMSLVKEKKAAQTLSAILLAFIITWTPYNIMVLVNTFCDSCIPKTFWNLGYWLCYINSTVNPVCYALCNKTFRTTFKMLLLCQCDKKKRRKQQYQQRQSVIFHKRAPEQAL", "experiment": "SAFETYScan GPCR Calcium Flux, Agonist", "type": "cell-based", "source_text": "as §1"}, "HRH1": {"target": "HRH1 (Homo sapiens, UniProt P35367)", "sequence (P35367 whole entry)": "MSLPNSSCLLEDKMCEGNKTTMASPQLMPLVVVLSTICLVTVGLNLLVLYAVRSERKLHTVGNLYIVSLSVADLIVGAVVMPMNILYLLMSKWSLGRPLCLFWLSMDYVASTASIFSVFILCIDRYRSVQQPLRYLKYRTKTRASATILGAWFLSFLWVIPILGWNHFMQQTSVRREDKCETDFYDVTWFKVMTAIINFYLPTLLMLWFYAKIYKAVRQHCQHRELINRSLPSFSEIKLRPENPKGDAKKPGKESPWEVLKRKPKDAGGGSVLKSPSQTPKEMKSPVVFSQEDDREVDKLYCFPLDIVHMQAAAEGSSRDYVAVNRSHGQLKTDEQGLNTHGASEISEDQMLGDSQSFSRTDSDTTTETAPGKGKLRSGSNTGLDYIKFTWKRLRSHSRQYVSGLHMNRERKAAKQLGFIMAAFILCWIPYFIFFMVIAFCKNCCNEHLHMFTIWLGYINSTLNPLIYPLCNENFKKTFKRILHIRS", "experiment": "SAFETYScan GPCR Calcium Flux, Agonist", "type": "cell-based", "source_text": "as §1"}, "ADRA1A": {"target": "T3, ADRA1A (Homo sapiens, UniProt P35348)", "T3 sequence (P35348 1-466)": "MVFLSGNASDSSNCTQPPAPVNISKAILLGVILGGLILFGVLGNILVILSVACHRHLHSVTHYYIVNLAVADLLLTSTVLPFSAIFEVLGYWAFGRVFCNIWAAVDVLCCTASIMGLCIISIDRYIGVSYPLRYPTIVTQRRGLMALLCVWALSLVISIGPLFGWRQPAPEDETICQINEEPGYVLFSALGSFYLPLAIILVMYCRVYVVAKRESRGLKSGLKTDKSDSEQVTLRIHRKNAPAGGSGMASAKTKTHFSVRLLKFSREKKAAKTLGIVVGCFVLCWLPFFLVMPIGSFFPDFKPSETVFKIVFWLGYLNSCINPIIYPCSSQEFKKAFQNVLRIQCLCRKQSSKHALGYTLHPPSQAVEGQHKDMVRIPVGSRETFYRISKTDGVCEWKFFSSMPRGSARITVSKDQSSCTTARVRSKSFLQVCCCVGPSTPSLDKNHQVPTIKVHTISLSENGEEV", "experiment": "SAFETYScan GPCR Calcium Flux, Agonist", "type": "cell-based", "source_text": "as §1"}, "HTR2B": {"target": "T4, HTR2B (Homo sapiens, UniProt P41595)", "T4 construct": "expressed in transfected cells", "T4 sequence (P41595 whole entry)": "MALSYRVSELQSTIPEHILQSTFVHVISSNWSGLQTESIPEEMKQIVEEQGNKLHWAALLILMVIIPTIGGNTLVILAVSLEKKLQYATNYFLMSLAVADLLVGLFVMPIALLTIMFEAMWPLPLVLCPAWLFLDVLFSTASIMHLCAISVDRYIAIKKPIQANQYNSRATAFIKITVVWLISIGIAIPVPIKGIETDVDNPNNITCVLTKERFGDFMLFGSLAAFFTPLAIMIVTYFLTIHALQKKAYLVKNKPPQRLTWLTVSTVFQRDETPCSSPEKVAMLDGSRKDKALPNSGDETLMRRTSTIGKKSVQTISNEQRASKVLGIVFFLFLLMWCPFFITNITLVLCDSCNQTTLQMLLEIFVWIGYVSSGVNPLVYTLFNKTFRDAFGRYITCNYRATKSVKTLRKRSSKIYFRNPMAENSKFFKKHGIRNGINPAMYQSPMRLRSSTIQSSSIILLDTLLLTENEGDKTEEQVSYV", "experiment": "SAFETYScan GPCR Calcium Flux, Agonist", "type": "cell-based", "source_text": "as §1"}, "in vitro": {"experiment": "in vitro", "type": "in vitro ADME", "settings": "pH 7.4, 10 µM, 16 h at 30 °C"}, "[1]": {"experiment": "Microsomal clearance assay (MLM)", "type": "in vitro ADME", "settings": "female, CD1, pH 7.4; mouse liver microsomes, 1 μM compound", "procedure,_shortened": "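Compound (1 µM) was incubated at 37 °C with female CD1 mouse, female Sprague–Dawley rat or mixed-gender human liver microsomes (0.5 mg/mL protein) in 10 mmol/L phosphate, pH 7.4, with 3 mmol/L MgCl2. After 10 min preincubation, 1 mmol/L NADPH started the reaction. Samples taken up to 30 min were methanol-quenched and analysed by LC-MS.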"}},
  "note": "pEC50: −log10 of the molar value.",
  "data": [
    {"molecule": "C[C@H]1C[C@@H](O)CN(c2ncc(Cl)c(Nc3ccc4c(c3)c3c(c(=O)n4C)OCC(F)(F)[C@H](C4CC4)N3)n2)C1", "note": "[12a CCT373566, (S)-10-((5-Chloro-2-((3R,5S)-3-hydroxy-5-methylpiperidin-1-yl)pyrimidin-4-yl)amino)-2-cyclopropyl-3,3-difluoro-7-methyl-1,2,3,4-tetrahydro-[1,4]oxazepino[2,3-c]quinolin-6(7H)-one]", "values": [
      {"measurement": "Emax", "setting": "HTR2A; read-out: Max Response", "value": 0, "unit": "%"},
      {"measurement": "pEC50", "setting": "HTR2A; read-out: RC50 (EC50)", "value": "< 5.00"},
      {"measurement": "Emax", "setting": "AVPR1A; read-out: Max Response", "value": 4.09, "unit": "%"},
      {"measurement": "pEC50", "setting": "AVPR1A; read-out: RC50 (EC50)", "value": "< 5.00"},
      {"measurement": "Emax", "setting": "EDNRA; read-out: Max Response", "value": 0.25, "unit": "%"},
      {"measurement": "pEC50", "setting": "EDNRA; read-out: RC50 (EC50)", "value": "< 5.00"},
      {"measurement": "Emax", "setting": "ADORA2A; read-out: Max Response", "value": 0, "unit": "%"},
      {"measurement": "pEC50", "setting": "ADORA2A; read-out: RC50 (EC50)", "value": "< 5.00"},
      {"measurement": "Emax", "setting": "CHRM1; read-out: Max Response", "value": 3.12, "unit": "%"},
      {"measurement": "pEC50", "setting": "CHRM1; read-out: RC50 (EC50)", "value": "< 5.00"},
      {"measurement": "Emax", "setting": "CHRM3; read-out: Max Response", "value": 3.17, "unit": "%"},
      {"measurement": "pEC50", "setting": "CHRM3; read-out: RC50 (EC50)", "value": "< 5.00"},
      {"measurement": "Emax", "setting": "HRH1; read-out: Max Response", "value": 1.78, "unit": "%"},
      {"measurement": "pEC50", "setting": "HRH1; read-out: RC50 (EC50)", "value": "< 5.00"},
      {"measurement": "Emax", "setting": "ADRA1A; read-out: Max Response", "value": 5.05, "unit": "%"},
      {"measurement": "pEC50", "setting": "ADRA1A; read-out: RC50 (EC50)", "value": "< 5.00"},
      {"measurement": "Emax", "setting": "HTR2B; read-out: Max Response", "value": 1.98, "unit": "%"},
      {"measurement": "pEC50", "setting": "HTR2B; read-out: RC50 (EC50)", "value": "< 5.00"},
      {"measurement": "PAMPA (pH 7.4)", "setting": "in vitro", "value": 24, "unit": "×10–6 cm s–1"},
      {"measurement": "microsomal CLint at 0.5 h, 1 µM", "setting": "[1]", "value": 116, "unit": "µL/min/mg"}
    ]}
  ]
}
